Laboratory results reported in patent publication US20020137929A1, “1 - (3-heterocyclylphenyl) isothiourea, -isourea, -guanidine and -amidine herbicidal agents” (Intellectual Property Department, BASF Aktiengesellschaft, priority 1998, published 2002).

Key:
[1] = tested on: AMBEL (Ragweed, Common); test: Postemergence herbicidal evaluation; format: in vivo, Ambrosia artemisifolia; details: postemergence
Procedure, shortened: (§1)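 Young plants, roughly two weeks from seeding, receive the active ingredient as a sprayed dispersion (acetone/water 50/50, 0.5% TWEEN 20) at 40 psi. Doses span about 0.0156 to 0.500 kg/ha. A visual score from 0 to 9 compares treated with control plants four to five weeks on.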

[2] = tested on: CASOB (Sicklepod); test: Postemergence herbicidal evaluation; format: in vivo, Cassia obtusifolia; details: postemergence
Procedure, shortened: as §1

[3] = tested on: CHEAL (Lambsquarters, Common); test: Postemergence herbicidal evaluation; format: in vivo, Chenopodium album; details: postemergence
Procedure, shortened: as §1

[4] = tested on: GALAP (Galium); test: Postemergence herbicidal evaluation; format: in vivo, Galium aparine; details: postemergence
Procedure, shortened: as §1

[5] = tested on: ECHCG (Barnyardgrass); test: Postemergence herbicidal evaluation; format: in vivo, Echinochloa crus-galli; details: postemergence
Procedure, shortened: as §1

[6] = tested on: SETVI (Foxtail, Green); test: Postemergence herbicidal evaluation; format: in vivo, Setaria viridis; details: postemergence
Procedure, shortened: as §1

[7] = tested on: GLXMAW (Soybean, Williams); test: Postemergence herbicidal evaluation; format: in vivo, Glycine max, (L.) Merr. cv Williams; details: postemergence
Procedure, shortened: as §1

[8] = tested on: ORYSAT (Rice, Tebonnet); test: Postemergence herbicidal evaluation; format: in vivo, Oryza sativa, (L.) Tebonnet; details: postemergence
Procedure, shortened: as §1

[9] = tested on: CASOB (Sicklepod); test: Preemergence herbicidal evaluation; format: in vivo, Cassia obtusifolia; details: preemergence, rated 4-5 weeks after treatment, 0-9 scale
Procedure, shortened: (§2)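 Herbicidal effect scored visually, 0-9, at 4 to 5 weeks against a control; compound applied preemergence by aqueous acetone spray to seeded soil at about 0.0156 to 0.500 kg/ha.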

[10] = tested on: GALAP (Galium); test: Preemergence herbicidal evaluation; format: in vivo, Galium aparine; details: preemergence, rated 4-5 weeks after treatment, 0-9 scale
Procedure, shortened: as §2

[11] = tested on: ZEAMX (Corn, Field); test: Preemergence herbicidal evaluation; format: in vivo, Zea mays; details: preemergence, rated 4-5 weeks after treatment, 0-9 scale
Procedure, shortened: as §2

[12] = tested on: CYPIR (Rice Flatsedge); test: Preemergence weed control under flooded paddy conditions; format: in vivo, Cyperus iria; details: rated 3-4 weeks after treatment
Procedure, shortened: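 Visual injury scored 0-9 against control three to four weeks post-treatment, greenhouse-grown. Application: acetone/water (50/50) solutions dosed directly into flood water (1.5-3 cm over silt loam, planted top 0.5 cm), roughly 0.0313 to 0.500 kg/ha active ingredient.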

[13] = tested on: CYPSE (Flatsedge); test: as above; format: in vivo, Cyperus serotinus; details: rated 3-4 weeks after treatment
Procedure, shortened: (§3)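 First, seeds or propagules go into the top 0.5 cm of silt loam; next, water is held 1.5 to 3 cm over the soil; then compound (50/50 acetone/water) is pipetted into it at about 0.0313 to 0.500 kg/ha; finally plants are rated visually 0-9 after three to four weeks.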

[14] = tested on: SAGPY (Arrowhead (Pygmaea)); test: as above; format: in vivo, Sagittaria pygmaea; details: rated 3-4 weeks after treatment
Procedure, shortened: as §3

[15] = tested on: CYPSE (Flatsedge); test: Postemergence weed control under flooded paddy conditions; format: in vivo, Cyperus serotinus; details: postemergence weeds, rated 3 to 4 weeks after treatment
Procedure, shortened: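 Injury ratings (0–9 scale covering stand, vigor, malformation, size, chlorosis and overall appearance versus control) were made three to four weeks after treatment. Test material, about 0.0313 to 0.500 kg/ha a.i. in 50/50 v/v aqueous/acetone, was added to flood water 1.5 to 3 cm deep over 3 to 5 cm weeds and 1.5 to 2.5 leaf rice.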

CN1C(=O)C(CC(N)=O)SC1=Nc1cc(-n2c(=O)cc(C(F)(F)F)n(C)c2=O)c(F)cc1Cl (stereo not drawn) [Compound 92, 2-{{2-Chloro-5-[3,6-dihydro-3-methyl-2,6-dioxo-4-(trifluoromethyl)-1(2H)-pyrimidinyl]-4-fluorophenyl}imino}-3-methyl-4-oxo-5-thiazolidineacetamide]
9.0: AMBEL herbicidal rating ([1]; rate 0.0315 kg/ha) | AMBEL herbicidal rating ([1]; rate 0.0630 kg/ha) | CASOB herbicidal rating ([2]; rate 0.0630 kg/ha) | CHEAL herbicidal rating ([3]; rate 0.0315 kg/ha) | CHEAL herbicidal rating ([3]; rate 0.0630 kg/ha) | SETVI herbicidal rating ([6]; rate 0.0315 kg/ha) | SETVI herbicidal rating ([6]; rate 0.0630 kg/ha) | GLXMAW herbicidal rating ([7]; rate 0.0315 kg/ha) | GLXMAW herbicidal rating ([7]; rate 0.0630 kg/ha) | GALAP rating ([10]; 0.1250 kg/ha) | GALAP rating ([10]; 0.2500 kg/ha) | CYPSE herbicidal effect rating ([13]; 0.0313 kg/ha) | CYPSE herbicidal effect rating ([13]; 0.0625 kg/ha) | CYPSE herbicidal effect rating ([13]; 0.1250 kg/ha) | CYPSE herbicidal effect rating ([13]; 0.2500 kg/ha) | SAGPY herbicidal effect rating ([14]; 0.2500 kg/ha) | Herbicidal rating CYPSE ([15]; Rate 0.0313 kg/ha) | Herbicidal rating CYPSE ([15]; Rate 0.0625 kg/ha) | Herbicidal rating CYPSE ([15]; Rate 0.1250 kg/ha) | Herbicidal rating CYPSE ([15]; Rate 0.2500 kg/ha)
6.0: ZEAMX rating ([11]; 0.2500 kg/ha)
5.0: CASOB herbicidal rating ([2]; rate 0.0315 kg/ha) | CYPIR herbicidal effect rating ([12]; 0.1250 kg/ha)
2.0: CHEAL herbicidal rating ([3]; rate 0.0158 kg/ha) | ORYSAT herbicidal rating ([8]; rate 0.0315 kg/ha)
3.0: CASOB herbicidal rating ([2]; rate 0.0158 kg/ha) | GALAP herbicidal rating ([4]; rate 0.0315 kg/ha) | CASOB rating ([9]; 0.2500 kg/ha) | CYPIR herbicidal effect rating ([12]; 0.0313 kg/ha) | CYPIR herbicidal effect rating ([12]; 0.0625 kg/ha)
3.5: ORYSAT herbicidal rating ([8]; rate 0.0630 kg/ha)
7.5: GLXMAW herbicidal rating ([7]; rate 0.0158 kg/ha)
1.5: ORYSAT herbicidal rating ([8]; rate 0.0158 kg/ha)
4.0: GALAP herbicidal rating ([4]; rate 0.0630 kg/ha) | SAGPY herbicidal effect rating ([14]; 0.1250 kg/ha)
7.0: CYPIR herbicidal effect rating ([12]; 0.2500 kg/ha)
1.0: ECHCG herbicidal rating ([5]; rate 0.0315 kg/ha) | ECHCG herbicidal rating ([5]; rate 0.0630 kg/ha)
0.0: AMBEL herbicidal rating ([1]; rate 0.0158 kg/ha) | GALAP herbicidal rating ([4]; rate 0.0158 kg/ha) | ECHCG herbicidal rating ([5]; rate 0.0158 kg/ha) | SETVI herbicidal rating ([6]; rate 0.0158 kg/ha) | CASOB rating ([9]; 0.0156 kg/ha) | CASOB rating ([9]; 0.0313 kg/ha) | CASOB rating ([9]; 0.0625 kg/ha) | GALAP rating ([10]; 0.0156 kg/ha) | GALAP rating ([10]; 0.0313 kg/ha) | GALAP rating ([10]; 0.0625 kg/ha) | ZEAMX rating ([11]; 0.0156 kg/ha) | ZEAMX rating ([11]; 0.0313 kg/ha) | ZEAMX rating ([11]; 0.0625 kg/ha) | ZEAMX rating ([11]; 0.1250 kg/ha) | SAGPY herbicidal effect rating ([14]; 0.0313 kg/ha) | SAGPY herbicidal effect rating ([14]; 0.0625 kg/ha)
